As usually defined, the IC50 is the concentration that gives 50% inhibition.

SMYD2, sequence (Q9NRG4 whole entry): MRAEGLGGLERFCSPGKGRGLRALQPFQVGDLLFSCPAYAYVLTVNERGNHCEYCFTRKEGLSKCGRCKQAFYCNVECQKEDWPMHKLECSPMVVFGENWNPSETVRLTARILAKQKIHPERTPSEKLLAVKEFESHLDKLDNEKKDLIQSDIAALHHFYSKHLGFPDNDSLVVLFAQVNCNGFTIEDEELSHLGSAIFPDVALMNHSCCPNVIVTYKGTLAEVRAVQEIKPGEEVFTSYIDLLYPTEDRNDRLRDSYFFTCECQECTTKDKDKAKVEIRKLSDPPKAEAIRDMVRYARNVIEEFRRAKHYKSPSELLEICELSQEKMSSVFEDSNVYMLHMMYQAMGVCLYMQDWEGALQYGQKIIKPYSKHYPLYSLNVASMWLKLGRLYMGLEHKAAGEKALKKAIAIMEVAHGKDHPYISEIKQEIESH

This assay concerns the target SMYD2 (Homo sapiens (Human), UniProt Q9NRG4). Briefly: SMYD2 biochemical assay (SMYD2 enzyme assay on peptide substrate, 3H-SAM Flashplate). The note with it: read-out: SMYD2 Biochem IC50; IC50 values are an average of n = 1 to n = 50.
As to `COc1ccc(C(C)N2CC(NC(=O)c3cn(C4CC4)nn3)C2)cc1` (stereo not drawn) [compound 821, 1-cyclopropyl-N-{1-[1-(4-methoxyphenyl)ethyl]azetidin-3-yl}-1H-1,2,3-triazole-4-carboxamide], the IC50 amounted to 785 nM.
To `CC(O)COc1ccc(CN2CC(NC(=O)c3cn(C4CC4)nn3)C2)cc1` (stereo not drawn) [compound 822, 1-cyclopropyl-N-(1-{[4-(2-hydroxypropoxy)phenyl]methyl}azetidin-3-yl)-1H-1,2,3-triazole-4-carboxamide] belongs 1970 nM.
For the compound `O=C(NC1CN(Cc2ccc(OCCCO)cc2)C1)c1cn(C2CC2)nn1` [compound 823, 1-cyclopropyl-N-(1-{[4-(3-hydroxypropoxy)phenyl]methyl}azetidin-3-yl)-1H-1,2,3-triazole-4-carboxamide], the concentration for half-maximal inhibition (IC50) amounted to 3220 nM.
With `O=C(NC1CN(Cc2ccc(O)cc2)C1)c1cn(C2CC2)nn1` [compound 824, 1-cyclopropyl-N-{1-[(4-hydroxyphenyl)methyl]azetidin-3-yl}-1H-1,2,3-triazole-4-carboxamide], the IC50 was found to be 882 nM.
Then `CN1CC(NC(=O)c2cc(C3CC3)cnn2)C1` [compound 825, 5-cyclopropyl-N-(1-methylazetidin-3-yl)pyridazine-3-carboxamide], with 391 nM; and `COc1ccc(CN2CC(NC(=O)c3cn(C4CC4)nn3)C2)cc1` [compound 826, 1-cyclopropyl-N-{1-[(4-methoxyphenyl)methyl]azetidin-3-yl}-1H-1,2,3-triazole-4-carboxamide], with 1840 nM.
Then `O=C(NC1CN(Cc2ccc(OCCO)cc2)C1)c1cn(C2CC2)nn1` [compound 827, 1-cyclopropyl-N-(1-{[4-(2-hydroxyethoxy)phenyl]methyl}azetidin-3-yl)-1H-1,2,3-triazole-4-carboxamide], with 1380 nM.
Then `O=C(NC1CN(Cc2ccc(OCc3ccncc3)cc2)C1)c1cn(C2CC2)nn1` [compound 828, 1-cyclopropyl-N-(1-{[4-(pyridin-4-ylmethoxy)phenyl]methyl}azetidin-3-yl)-1H-1,2,3-triazole-4-carboxamide], with 1030 nM; and `CC(c1ccc(OCC(=O)N2CCOCC2)cc1)N1CC(NC(=O)c2cn(C3CC3)nn2)C1` (stereo not drawn) [compound 829, 1-cyclopropyl-N-[1-(1-(4-[2-(morpholin-4-yl)-2-oxoethoxy]phenyl}ethyl)azetidin-3-yl]-1H-1,2,3-triazole-4-carboxamide], with 713 nM.
With `COCCOc1ccc(CN2CC(NC(=O)c3cn(C4CC4)nn3)C2)cc1` [compound 830, 1-cyclopropyl-N-(1-{[4-(2-methoxyethoxy)phenyl]methyl}azetidin-3-yl)-1H-1,2,3-triazole-4-carboxamide], the half-inhibitory concentration (IC50) was 2070 nM.
On to `Cn1cc(CN2CC(NC(=O)c3cc(C4CC4)cnn3)C2)c(Cl)n1` [compound 833, N-{1-[(3-chloro-1-methyl-1H-pyrazol-4-yl)methyl]azetidin-3-yl}-5-cyclopropylpyridazine-3-carboxamide], for which the IC50 worked out at 940 nM.
To `CN(C)CCNC(=O)c1cn(C2CC2)nn1` [compound 834, 1-cyclopropyl-N-[2-(dimethylamino)ethyl]-1H-1,2,3-triazole-4-carboxamide] belongs over 50000 nM; to `CNCc1cccc(C(C)N2CC(NC(=O)c3cn(C4CC4)nn3)C2)c1OC` (stereo not drawn) [compound 835, 1-cyclopropyl-N-[1-(1-(2-methoxy-3-[(methylamino)methyl]phenyl}ethyl)azetidin-3-yl]-1H-1,2,3-triazole-4-carboxamide], 780 nM; to `CC(c1ccc(OCc2ccccc2)cc1)N1CC(NC(=O)c2cc(C3CC3)cnn2)C1` (stereo not drawn) [compound 836, N-(1-{1-[4-(benzyloxy)phenyl]ethyl}azetidin-3-yl)-5-cyclopropylpyridazine-3-carboxamide], 26.5 nM.
Then `CC[C@@H](c1cccc(Cl)c1)N1CC(NC(=O)c2cn(C3CC3)nn2)C1` [compound 837, N-{1-[(1S)-1-(3-chlorophenyl)propyl]azetidin-3-yl}-1-cyclopropyl-1H-1,2,3-triazole-4-carboxamide], with 340 nM; and `O=C(NC1CN(Cc2cn(CCc3ccccc3)cn2)C1)c1cc(C2CC2)cnn1` [compound 838, 5-cyclopropyl-N-(1-{[1-(2-phenylethyl)-1H-imidazol-4-yl]methyl}azetidin-3-yl)pyridazine-3-carboxamide], with 496 nM.
Then `CC(NC(=O)c1cc(C2CC2)cnn1)C1CNC1` (stereo not drawn) [compound 839, N-[1-(azetidin-3-yl)ethyl]-5-cyclopropylpyridazine-3-carboxamide], with 18200 nM; and `CC(NC(=O)c1cc(C2CC2)cnn1)C1CN(C(C)C)C1` (stereo not drawn) [compound 840, 5-cyclopropyl-N-{1-[1-(propan-2-yl)azetidin-3-yl]ethyl}pyridazine-3-carboxamide], with 36800 nM.
Take `COc1ccccc1[C@H](C)N1CC(NC(=O)c2cc(C3CC3)cnn2)C1` [compound 841, 5-cyclopropyl-N-{1-[(1S)-1-(2-methoxyphenyl)ethyl]azetidin-3-yl}pyridazine-3-carboxamide]: the half-inhibitory concentration (IC50) is 5010 nM.
Then `COc1ccccc1[C@@H](C)N1CC(NC(=O)c2cc(C3CC3)cnn2)C1` [compound 842, 5-cyclopropyl-N-{1-[(1R)-1-(2-methoxyphenyl)ethyl]azetidin-3-yl}pyridazine-3-carboxamide], with 189 nM; and `COc1ccc(C(C)N2CC(NC(=O)c3cn(C4CC4)nn3)C2)c(Cl)c1` (stereo not drawn) [compound 845, N-{1-[1-(2-chloro-4-methoxyphenyl)ethyl]azetidin-3-yl}-1-cyclopropyl-1H-1,2,3-triazole-4-carboxamide], with 88 nM; and `O=C(NC1CN(Cc2ccc(OCc3cscn3)cc2)C1)c1cn(C2CC2)nn1` [compound 846, 1-cyclopropyl-N-(1-{[4-(1,3-thiazol-4-ylmethoxy)phenyl]methyl}azetidin-3-yl)-1H-1,2,3-triazole-4-carboxamide], with 1090 nM.
Then `O=C(NC1CN(Cc2ccc(OCc3ccccn3)cc2)C1)c1cn(C2CC2)nn1` [compound 849, 1-cyclopropyl-N-(1-{[4-(pyridin-2-ylmethoxy)phenyl]methyl}azetidin-3-yl)-1H-1,2,3-triazole-4-carboxamide], with 2660 nM; and `COc1cccc(C(C)N2CC(NC(=O)c3cc(C4CC4)cnn3)C2)c1Cl` (stereo not drawn) [compound 851, N-{1-[1-(2-chloro-3-methoxyphenyl)ethyl]azetidin-3-yl}-5-cyclopropylpyridazine-3-carboxamide], with 72.1 nM.
To `CC(c1ccc(OCCc2ccccc2)cc1)N1CC(NC(=O)c2cn(C3CC3)nn2)C1` (stereo not drawn) [compound 853, 1-cyclopropyl-N-(1-{1-[4-(2-phenylethoxy)phenyl]ethyl}azetidin-3-yl)-1H-1,2,3-triazole-4-carboxamide] belongs 776 nM.
On to `CNC(=O)c1ccc(COc2ccc(C(C)N3CC(NC(=O)c4cn(C5CC5)nn4)C3)cc2)cc1` (stereo not drawn) [compound 854, 1-cyclopropyl-N-{1-[1-(4-{[4-(methylcarbamoyl)phenyl]methoxy}phenyl)ethyl]azetidin-3-yl}-1H-1,2,3-triazole-4-carboxamide], for which the half-inhibitory concentration (IC50) was 965 nM.
To `COc1ccc(COc2ccc(C(C)N3CC(NC(=O)c4cn(C5CC5)nn4)C3)cc2)cc1` (stereo not drawn) [compound 855, 1-cyclopropyl-N-[1-(1-{4-[(4-methoxyphenyl)methoxy]phenyl}ethyl)azetidin-3-yl]-1H-1,2,3-triazole-4-carboxamide] belongs 159 nM.
Then `COc1ccc(C(C)N2CC(NC(=O)c3cc(C4CC4)cnn3)C2)cc1` (stereo not drawn) [compound 856, 5-cyclopropyl-N-{1-[1-(4-methoxyphenyl)ethyl]azetidin-3-yl}pyridazine-3-carboxamide], with 603 nM; and `CC(c1ccc(OCCN(C)C)cc1)N1CC(NC(=O)c2cn(C3CC3)nn2)C1` (stereo not drawn) [compound 857, 1-cyclopropyl-N-[1-(1-{4-[2-(dimethylamino)ethoxy]phenyl}ethyl)azetidin-3-yl]-1H-1,2,3-triazole-4-carboxamide], with 1980 nM; and `CC(c1ccc(OCCCN(C)C)cc1)N1CC(NC(=O)c2cn(C3CC3)nn2)C1` (stereo not drawn) [compound 858, 1-cyclopropyl-N-[1-(1-{4-[3-(dimethylamino)propoxy]phenyl}ethyl)azetidin-3-yl]-1H-1,2,3-triazole-4-carboxamide], with 4790 nM.
Then `CC(c1ccccc1Cl)N1CC(NC(=O)c2cn(C3CC3)nn2)C1` (stereo not drawn) [compound 859, N-{1-[1-(2-chlorophenyl)ethyl]azetidin-3-yl}-1-cyclopropyl-1H-1,2,3-triazole-4-carboxamide], with 160 nM; and `COc1ccc(Cl)cc1C(C)N1CC(NC(=O)c2cn(C3CC3)nn2)C1` (stereo not drawn) [compound 860, N-{1-[1-(5-chloro-2-methoxyphenyl)ethyl]azetidin-3-yl}-1-cyclopropyl-1H-1,2,3-triazole-4-carboxamide], with 2790 nM; and `COc1cccc(C(C)N2CC(NC(=O)c3cc(C4CC4)cnn3)C2)c1OC` (stereo not drawn) [compound 861, 5-cyclopropyl-N-{1-[1-(2,3-dimethoxyphenyl)ethyl]azetidin-3-yl}pyridazine-3-carboxamide], with 121 nM.
As for `CC(c1ccc(NCc2ccccc2)cc1)N1CC(NC(=O)c2cn(C3CC3)nn2)C1` (stereo not drawn) [compound 862, N-(1-{1-[4-(benzylamino)phenyl]ethyl}azetidin-3-yl)-1-cyclopropyl-1H-1,2,3-triazole-4-carboxamide], the IC50 worked out at 334 nM.
Then `CC(c1ccc(OCC(C)(C)C)cc1)N1CC(NC(=O)c2cn(C3CC3)nn2)C1` (stereo not drawn) [compound 864, 1-cyclopropyl-N-(1-{1-[4-(2,2-dimethylpropoxy)phenyl]ethyl}azetidin-3-yl)-1H-1,2,3-triazole-4-carboxamide], with 3140 nM; and `COc1cnc(C(C)N2CC(NC(=O)c3cn(C4CC4)nn3)C2)nc1` (stereo not drawn) [compound 865, 1-cyclopropyl-N-{1-[1-(5-methoxypyrimidin-2-yl)ethyl]azetidin-3-yl}-1H-1,2,3-triazole-4-carboxamide], with 1640 nM.
